The values below come from ChEMBL document CHEMBL1125696, “Synthesis and structure-activity relationships of deltorphin analogues” (J Med Chem, 1991).

Non-standard residues stand in square brackets, D forms with d. Residues, ends and D or L forms follow the SMILES beside them. Abu = CC[C@H](N)C(=O)O

For test [1], the target named is T1, Delta-type opioid receptor (Rattus norvegicus, UniProt P33533). The test can be described thus: Displacement of [3H]DSLET from delta opioid receptor in rat brain membrane. The test is classed as cell membranes. A general note: In a radioligand displacement assay an active substance lowers the binding of a labelled ligand.
T1 sequence (P33533 whole entry): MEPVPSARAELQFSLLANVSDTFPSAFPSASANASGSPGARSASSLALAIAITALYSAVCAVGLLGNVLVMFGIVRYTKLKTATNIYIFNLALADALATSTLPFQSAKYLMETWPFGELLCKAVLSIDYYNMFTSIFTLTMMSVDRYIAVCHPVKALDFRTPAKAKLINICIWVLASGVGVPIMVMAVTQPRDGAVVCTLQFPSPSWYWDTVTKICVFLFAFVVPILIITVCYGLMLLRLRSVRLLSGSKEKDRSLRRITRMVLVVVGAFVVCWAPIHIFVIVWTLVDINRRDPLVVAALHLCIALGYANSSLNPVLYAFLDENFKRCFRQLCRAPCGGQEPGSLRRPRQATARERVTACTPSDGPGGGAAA
Test [2] deals with T2, Mu-type opioid receptor (Rattus norvegicus, UniProt P33535). Kind of test: Displacement of [3H]- DAGO from opioid receptor mu in rat brain membrane. The test is classed as cell membranes.
T2 sequence (P33535 whole entry): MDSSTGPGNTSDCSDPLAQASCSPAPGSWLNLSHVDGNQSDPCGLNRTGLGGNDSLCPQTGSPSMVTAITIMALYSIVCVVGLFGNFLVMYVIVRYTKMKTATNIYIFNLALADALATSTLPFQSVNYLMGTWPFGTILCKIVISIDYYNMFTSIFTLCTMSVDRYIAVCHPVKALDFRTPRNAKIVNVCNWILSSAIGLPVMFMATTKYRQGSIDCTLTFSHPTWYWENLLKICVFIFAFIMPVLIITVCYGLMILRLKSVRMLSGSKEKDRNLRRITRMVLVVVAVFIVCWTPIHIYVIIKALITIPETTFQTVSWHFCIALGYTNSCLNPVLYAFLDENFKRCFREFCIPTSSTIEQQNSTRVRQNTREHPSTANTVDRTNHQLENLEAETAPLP
Test [3] has as its target T3, Delta-type opioid receptor (Mus musculus, UniProt P32300). The test can be described thus: In vitro opioid receptor delta mediated mouse vas deferens (MVD) assay. In kind it is tissue-based.
The target of test [4] is T4, Mu-type opioid receptor (Cavia porcellus, UniProt P97266). The test can be described thus: Inhibition of opioid receptor mu in guinea pig ileum (GPI). In kind it is tissue-based.
T4 sequence (P97266 whole entry): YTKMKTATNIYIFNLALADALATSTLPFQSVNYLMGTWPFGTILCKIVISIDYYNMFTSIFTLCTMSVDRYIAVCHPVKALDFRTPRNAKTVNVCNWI
Test [5] has as its target T1, Delta-type opioid receptor. Kind of test: Displacement of [3H]- DPDPE from delta opioid receptor in rat brain membrane. The test is classed as cell membranes.
Test [6] can be described thus: (§1) IC50 ratio is GPI/MVD. The test is classed as functional.
Test [7] has as its target T4, Mu-type opioid receptor. Kind of test: Compound is tested in vitro in guinea pig ileum (GPI) assay mediated by Opioid receptor mu 1. In kind it is tissue-based.
Test [8] addresses T3, Delta-type opioid receptor. Kind of test: Compound is tested in vitro in mouse vas deferens (MVD) assay mediated by Opioid receptor delta 1. In kind it is tissue-based.
Test [9] concerns the target T1, Delta-type opioid receptor. The test can be described thus: Opioid receptor binding affinity in rat brain membrane preparations by the displacement of [3H]DSLET (Opioid receptor delta 1-selective radioligand). In kind it is cell membranes.
A short description of test [10]: as §1.
The target in test [11] is T2, Mu-type opioid receptor. The test can be described thus: Opioid receptor mu 1 binding affinity in rat brain membrane preparations by the displacement of [3H]- DAGO. In kind it is cell membranes.
The target in test [12] is T1, Delta-type opioid receptor. The test can be described thus: Opioid receptor binding affinity in rat brain membrane preparations by the displacement of [3H]- DPDPE (Opioid receptor delta 1-selective radioligand). In kind it is cell membranes.
The nature of test [13]: IC50 ratio is [3H]- DAGO/[3H]-DSLET.

T3 sequence (P32300 whole entry): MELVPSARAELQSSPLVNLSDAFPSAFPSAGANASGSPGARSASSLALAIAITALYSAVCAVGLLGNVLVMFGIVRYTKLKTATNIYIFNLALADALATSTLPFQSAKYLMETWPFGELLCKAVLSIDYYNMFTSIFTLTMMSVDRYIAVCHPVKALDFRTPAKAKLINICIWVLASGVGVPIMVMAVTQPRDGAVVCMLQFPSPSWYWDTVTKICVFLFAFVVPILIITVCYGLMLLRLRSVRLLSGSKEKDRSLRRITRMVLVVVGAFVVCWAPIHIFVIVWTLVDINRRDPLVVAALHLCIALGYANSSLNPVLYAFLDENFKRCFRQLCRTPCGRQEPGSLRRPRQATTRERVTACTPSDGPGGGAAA

In general, IC50 refers to the point on the concentration scale where inhibition reaches its midpoint. Higher therefore signals a need for much substance. With H-YMFHLMD-OH, the IC50 in [1] came out at 4.5 nM; at Mu-type opioid receptor [2], 1500 nM; in [3] it was 1.3 nM; against Mu-type opioid receptor [4], 6000 nM; in test [5] it was 2.4 nM.

`CC[C@H](NC(=O)[C@H](CCSC)NC(=O)[C@H](CC(C)C)NC(=O)[C@H](Cc1c[nH]cn1)NC(=O)[C@H](Cc1ccccc1)NC(=O)[C@H](CCSC)NC(=O)[C@@H](N)Cc1ccc(O)cc1)C(N)=O` (H-YMFHLM[Abu]-NH2): in test [6], the Ratio amounted to 200.

Take `CC(C)[C@H](NC(=O)[C@H](CCC(=O)O)NC(=O)[C@H](Cc1ccccc1)NC(=O)[C@H](C)NC(=O)[C@@H](N)Cc1ccc(O)cc1)C(=O)N[C@H](C(=O)NCC(N)=O)C(C)C`: the IC50 in test [1] came to 3.8 nM; on Mu-type opioid receptor [4], 5200 nM; in [5], 3.6 nM.

Take `C[C@@H](NC(=O)[C@@H](N)Cc1ccc(O)cc1)C(=O)N[C@@H](Cc1ccccc1)C(=O)NCC(=O)N[C@@H](Cc1ccc(O)cc1)C(=O)N1CCC[C@H]1C(=O)N[C@@H](CO)C(N)=O` [DERMORPHIN]: the IC50 on Mu-type opioid receptor [2] worked out at 3.2 nM; at Mu-type opioid receptor [4], 1.41 nM.

Regarding H-YAFDV-NH2, the IC50 in test [1] worked out at 99 nM; on Mu-type opioid receptor [2] it was 640 nM; in [3], 220 nM; against Mu-type opioid receptor [4] it was 650 nM.

For the compound `CC[C@H](NC(=O)[C@@H](NC(=O)CNC(=O)[C@H](Cc1ccccc1)NC(=O)[C@H](C)NC(=O)[C@@H](N)Cc1ccc(O)cc1)C(C)C)C(=O)N[C@@H](CC(=O)O)C(N)=O` (H-YAFGV[Abu]D-NH2), the IC50 at Mu-type opioid receptor [7] is 130 nM; in [8], 11.1 nM; in [9] it was 29.5 nM; on Mu-type opioid receptor [11], 130 nM. In addition, in test [10], the Ratio amounted to 12.

On to H-YMFGLMD-NH2, for which the IC50 turned out to be 100 nM against Mu-type opioid receptor [7]; 1.65 nM in [8]; 14 nM in test [9]; 8 nM in test [12]; 161 nM on Mu-type opioid receptor [11]. Also, the values for the Ratio in [10] and in [13] were 62 and 11.5, respectively.

`C[C@H](NC(=O)[C@@H](N)Cc1ccc(O)cc1)C(=O)N[C@@H](Cc1ccccc1)C(=O)N[C@@H](CC(=O)O)C(N)=O` (H-YAFD-NH2): the IC50 in test [1] was 960 nM; on Mu-type opioid receptor [2] it was 100 nM; in [3], 1000 nM; against Mu-type opioid receptor [4] it was 160 nM.

As for `CC[C@H](NC(=O)[C@H](CCSC)NC(=O)[C@H](CC(C)C)NC(=O)[C@H](Cc1cnc[nH]1)NC(=O)[C@H](Cc1ccccc1)NC(=O)[C@H](CCSC)NC(=O)[C@@H](N)Cc1ccc(O)cc1)C(N)=O` (H-YMFHLM[Abu]-NH2), the IC50 turned out to be 18 nM in [1]; 360 nM at Mu-type opioid receptor [2]; 1.5 nM in test [3]; 300 nM against Mu-type opioid receptor [4]; 7.4 nM in test [5].

In the case of `CC(C)[C@H](NC(=O)[C@H](CC(=O)O)NC(=O)[C@H](Cc1ccccc1)NC(=O)[C@H](C)NC(=O)[C@@H](N)Cc1ccc(O)cc1)C(=O)N[C@H](C(=O)NCC(N)=O)C(C)C`, the IC50 in test [1] was 1.5 nM; at Mu-type opioid receptor [2] it was 910 nM; at Mu-type opioid receptor [4], 420 nM; in test [5], 1.1 nM.

In the case of H-YMFHLMN-OH, the Ratio in [6] stood at 39. In addition, the IC50 is 22 nM in test [1]; 660 nM on Mu-type opioid receptor [2]; 9 nM in test [3]; 350 nM against Mu-type opioid receptor [4]; 16 nM in test [5].

With `CC(C)[C@H](NC(=O)[C@H](CCC(=O)O)NC(=O)[C@H](Cc1ccccc1)NC(=O)[C@H](C)NC(=O)[C@@H](N)Cc1ccc(O)cc1)C(=O)N[C@H](C(=O)NCC(=O)O)C(C)C` [DELTORPHINE II], the IC50 amounted to 184 nM in test [1], 5.55 nM in test [3] and 9000 nM at Mu-type opioid receptor [4].

Regarding H-YMFHLMN-NH2 [listing 1 of 2 here], the IC50 is 20 nM in test [1]; 380 nM at Mu-type opioid receptor [2]; 8 nM in test [3]; 245 nM at Mu-type opioid receptor [4]; 18 nM in test [5].

For H-YMFDLMD-OH, the IC50 against Mu-type opioid receptor [7] is over 15000 nM; in [8], 380 nM; in [9], 80 nM; in test [12], 55 nM; at Mu-type opioid receptor [11], over 30000 nM. The Ratio in [10] was over 40; in [13], over 375.

H-YMFFLMD-NH2: the Ratio in [6] is 47. Further, the IC50 in [1] came to 15 nM; on Mu-type opioid receptor [2] it was 450 nM; in test [3] it was 1.6 nM; on Mu-type opioid receptor [4], 75 nM; in test [5], 11 nM.

Turning to H-YMFHLMN-NH2 [listing 2 of 2 here], the Ratio in test [6] amounted to 30.

In the case of H-YMFKLMD-NH2, the 50% inhibitory concentration (IC50) at Mu-type opioid receptor [7] worked out at 7500 nM; in [8], 1000 nM; in [9], 550 nM; in test [12] it was 380 nM; on Mu-type opioid receptor [11], 6000 nM. Further, the Ratio in test [10] is 7.5; in test [13], 11.

With H-YAFDVV-NH2, the IC50 stood at 3.9 nM in test [1], 700 nM on Mu-type opioid receptor [2], 7.5 nM in [3] and 320 nM on Mu-type opioid receptor [4].

Consider H-YMFYLMD-NH2, for which the Ratio in test [6] worked out at 100. For the same compound, the IC50 in test [1] was determined as 9.1 nM; on Mu-type opioid receptor [2], 158 nM; in [3] it was 1.02 nM; against Mu-type opioid receptor [4] it was 100 nM; in test [5], 5.9 nM.

In the case of H-YAFQVVG-NH2, the IC50 against Mu-type opioid receptor [7] came to 280 nM; in [8] it was 1.51 nM; in test [9], 3.8 nM; at Mu-type opioid receptor [11], 280 nM. Further, the Ratio in test [10] was determined as 185; in test [13], 73.

For the compound `CSCC[C@H](NC(=O)[C@H](CC(C)C)NC(=O)[C@H](Cc1cnc[nH]1)NC(=O)[C@H](Cc1ccccc1)NC(=O)[C@@H](CCSC)NC(=O)[C@@H](N)Cc1ccc(O)cc1)C(=O)N[C@@H](CC(=O)O)C(N)=O` (H-Y[dM]FHLMD-NH2), the IC50 turned out to be 9 nM in test [1]; 1200 nM at Mu-type opioid receptor [2]; 1.3 nM in test [3]; 1900 nM against Mu-type opioid receptor [4]; 6.1 nM in test [5].
